In publication PMC6796659, “Topoisomerase IB poisons induce histone H2A phosphorylation as a response to DNA damage in Leishmania infantum” (International Journal for Parasitology: Drugs and Drug …, 2019):
Where two headings read alike, the source gives them in different places.

Assays:
[1] = test system: iRFP L. infantum amastigotes infecting mouse splenocytes; settings: ref Prada et al., 2013; cited from earlier work
[2] = test system: histone H2A (Thr128) in L. infantum promastigotes; test: Histone H2A phosphorylation (γH2A) by Western blot; type: cell-based, Leishmania infantum; settings: 10 μM, 0, 15, 60, 120 min
Method: To detect H2A phosphorylation by L. infantum promastigotes, parasites in exponential growing phase (5–6 x 10^6 cells/mL) were incubated at 26 °C with CPT derivatives and indenoisoquinolines at a final concentration in the supplemented 199 standard medium of 10 μM. Control cells were treated with the drug vehicle DMSO using concentrations below 0.1%. After 0, 15, 60 and 120-min incubations, promastigotes were harvested by centrifugation, washed twice in PBS and the pellet resuspended in lysis buffer containing 50 mM Tris (pH:7), 50 mM NaCl, 20 mM NaF, 0.1% Tween 20 and 2x protease inhibitors (PIERCE™ protease inhibitor mini tablets). Twenty micrograms of the different extracts were loaded onto 15% SDS-PAGE gels, electrophoresed and transferred to PVDF membranes (Immobilon-FL, Millipore) using a mini trans-blot electrophoretic transfer cell (Bio-Rad). Polyclonal γH2A antisera were used at a 1:2000 dilution and secondary goat anti-rabbit IgG IRDye680 (Li-Cor Biosciences) was used at a 1:15000 dilution. The peptide competition assay was done incubating the polyclonal γH2A antisera with 50 ng/mL of the appropriate peptide (with and without phosphorylation at Thr residue) in blocking buffer for 1 h at room temperature before blotting. Loading control was performed using a monoclonal α tubulin mouse antibody at 2 μg/mL (final concentration) and a goat anti-mouse IgG IRDye 800 (Li-Cor Biosciences) as secondary antibody. Bands were visualized in an Odissey® (Li-Cor Biosciences) infrared detection facility. The quantification of γH2A signal was done with Bio-Rad Quantity One Analysis Software.

[3] = test system: L. infantum promastigotes; test: Cell cycle analysis by flow cytometry (propidium iodide); type: cell-based, Leishmania infantum; settings: 1 μM single dose, 0, 8, 24, 48 h
Method: One million promastigotes untreated or treated with 1 μM of different indenoisoquinolines were harvested by centrifugation after 0, 8, 24 and 48 h exposure. Promastigotes were washed twice with PBS and fixed by 1 h incubation with 70% methanol at 4 °C. After incubation, cells were centrifuged, washed again with PBS and resuspended in 0.5 mL of citrate buffer (45 mM MgCl2, 20 mM MOPS, 30 mM sodium citrate, 0.1% Triton X-100, pH = 7). Finally, samples with RNAase (50 μg/mL) and propidium iodide ([…]) were incubated at 37 °C during 30 min and analyzed at 589 nm by flow cytometry (Cyan ADP Dako).

[4] = test system: iRFP L. infantum promastigotes; test: Antileishmanial activity on free-living iRFP L. infantum promastigotes (infrared fluorescence viability); type: cell-based; settings: Leishmania infantum, 72 h, 26 °C
Method: Histone phosphorylation assays were performed in promastigotes of L. infantum BCN 150 strain, whereas the antiparasitic activity of the compounds was assessed on the transgenic strain that constitutively expresses the irfp gene encoding the infrared iRFP protein (iRFP L. infantum strain) ([Calvo-Álvarez et al., 2015]), which is derived from L. infantum BCN 150. Both strains were grown at 26 °C in M-199 medium (Gibco) supplemented with 25 mM HEPES pH 7.2, 0.1 mM adenine, 0.0005% (w/v) hemin, 2 μg/mL biopterin, 0.0001% (w/v) biotin, 10% (v/v) heat-inactivated fetal bovine serum (FBS) and an antibiotic cocktail comprising 50 U/mL penicillin and 50 μg/mL streptomycin.
(§1) The antileishmanial activity of the compounds was tested both in promastigotes and in amastigotes infecting mouse splenocytes. For this purpose, 384-well optical bottom black plates (Thermo Scientific) were seeded either with free-living iRFP L. infantum promastigotes or with splenic explants infected with iRFP L. infantum amastigotes, which were incubated at 26 °C or 37 °C, respectively. The viability of both iRFP L. infantum stages was measured by recording the fluorescence emitted by viable cells at 708 nm in an Odyssey (Li-Cor) infrared imaging system after a 72-h period of incubation with different concentrations of the compounds. Dose-response curves were obtained by plotting the infrared fluorescence emission of viable parasites vs. different concentrations of testing compounds and were fitted by nonlinear analysis using the Sigma-Plot 10.0 statistical package. The reduction of infrared emission with respect to the negative control was used to determine the 50% effective concentration to kill the parasites (EC50). Both controls and treated groups were tested with DMSO (drug vehicle) concentrations below 0.1%. All compounds and controls were assayed in triplicate.

[5] = Cytotoxicity on uninfected mouse splenocytes (Alamar Blue); type: cell-based; settings: BALB/c, freshly isolated uninfected mouse splenocytes, non-infected mouse splenocytes, read-out: CC50 (μM) Murine Splenocytes
Method: Finally, the cytotoxicity of the compounds was assessed on freshly-isolated mouse splenocytes, which were obtained from uninfected BALB/c mice according to the protocol previously described. Viability of uninfected splenocytes was used to determine the cytotoxic concentration 50 (CC50) by means of the Alamar Blue staining method, according to manufacturer's recommendations (Invitrogen). Selectivity index (SI) for each compound was calculated as the ratio between the CC50 value obtained for splenic cells and the EC50 value for amastigotes.

[6] = test system: iRFP L. infantum amastigotes infecting mouse splenocytes; test: Antileishmanial activity on iRFP L. infantum amastigotes in ex vivo murine splenic explants; type: cell-based, Leishmania infantum; settings: for EC50: Leishmania infantum, Splenocyte, splenic-infecting iRFP L. infantum amastigotes, 72 h, 37 °C, read-out: EC50 (μM) L. infantum amastigotes; for SI (Selectivity Index): CC50 (splenocytes)/EC50 (amastigotes)
Method: Five-week BALB/c female mice infected intraperitoneally with 1.5 × 10^9 metacyclic iRFP L. infantum promastigotes were sacrificed to eviscerate their spleens, which were processed to obtain a suspension of primary splenocytes. Briefly, freshly dissected spleens were washed with cold phosphate-buffered saline (PBS), cut in small pieces and incubated for 20 min with 5 mL of 2 mg/mL collagenase D (Sigma) prepared in buffer (10 mM HEPES, pH 7.4, 150 mM NaCl, 5 mM KCl, 1 mM MgCl2 and 1.8 mM CaCl2). Then, the cell suspension was passed through a 100 μm cell strainer, harvested by centrifugation (500×g for 7 min at 4 °C), washed twice with PBS, and resuspended in RPMI medium (Gibco) supplemented with 10 mM HEPES, 1 mM sodium pyruvate, 1xRPMI 1640 vitamin mix, 10% (v/v) FBS, 50 U/mL penicillin and 50 μg/mL streptomycin. The cell suspension was cultured in 384-well optical bottom black plates (Thermo Scientific) at 37 °C under 5% CO2 atmosphere.
as §1

human Top IB (hTopIB) = biological target: T1, human Top IB (hTopIB) (Homo sapiens, UniProt P11387); test: Relaxation of supercoiled pSK DNA by recombinant hTopIB; type: biochemical
T1 construct: made in house
T1 sequence (P11387 1-765): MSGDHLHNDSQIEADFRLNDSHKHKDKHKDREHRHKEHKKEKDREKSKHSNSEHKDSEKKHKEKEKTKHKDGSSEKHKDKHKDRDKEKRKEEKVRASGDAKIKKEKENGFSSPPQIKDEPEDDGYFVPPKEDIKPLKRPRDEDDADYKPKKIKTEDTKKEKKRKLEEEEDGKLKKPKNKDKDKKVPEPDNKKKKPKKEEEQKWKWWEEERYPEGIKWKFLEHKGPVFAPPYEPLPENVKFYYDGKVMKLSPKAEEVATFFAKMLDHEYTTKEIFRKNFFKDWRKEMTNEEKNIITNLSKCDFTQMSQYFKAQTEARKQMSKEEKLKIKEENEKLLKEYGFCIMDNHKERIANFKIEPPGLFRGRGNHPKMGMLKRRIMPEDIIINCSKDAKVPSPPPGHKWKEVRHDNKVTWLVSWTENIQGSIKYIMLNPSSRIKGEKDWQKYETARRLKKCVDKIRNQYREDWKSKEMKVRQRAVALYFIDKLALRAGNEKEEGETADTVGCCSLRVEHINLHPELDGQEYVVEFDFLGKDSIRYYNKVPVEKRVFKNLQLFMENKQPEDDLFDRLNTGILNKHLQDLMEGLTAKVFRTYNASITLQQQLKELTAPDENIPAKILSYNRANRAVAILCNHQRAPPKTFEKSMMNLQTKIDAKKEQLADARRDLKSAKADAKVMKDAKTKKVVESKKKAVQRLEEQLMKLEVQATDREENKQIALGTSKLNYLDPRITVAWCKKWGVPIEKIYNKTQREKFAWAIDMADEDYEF
Method: (§2) Expression and purification of LTopIB and hTopIB were carried out according to a previously standardized protocol ([Villa et al., 2003]). The effect of indenoisoquinolines (compounds 1 to 20) on recombinant LTopIB and hTopIB was determined by measuring the relaxation of negatively supercoiled pBluescript-SK DNA plasmid (pSK). Briefly, in a total volume of 20 μL, 100 U of recombinant TopIB were incubated with 0.5 μg of pSK DNA in 10 mM Tris-HCl buffer (pH 7.5), 5 mM MgCl2, 5 mM dithiothreitol (DTT), 0.1 mM EDTA, […] bovine serum albumin, and 150 mM KCl. Different concentrations of indenoisoquinolines were also added. Following a 4-min incubation period at 25 °C, reactions were stopped with 1% (w/v) SDS, and incubated for one extra hour at 37 °C in the presence of 1 mg/mL proteinase K. Subsequently, samples were extracted with 1 vol phenol-chloroform mixture and were loaded on a 1% agarose gel containing 0.1 μg/mL ethidium bromide. The gel was run for 16 h at 4 V/cm, and the images were acquired using a G-Box system (Syngene, United Kingdom).

[7] = test system: Leishmania topoisomerase IB (LTopIB); test: Relaxation of supercoiled pSK DNA by recombinant LTopIB; type: biochemical
Method: as §2

[8] = test system: TopIB-DNA complexes in L. infantum promastigotes; test: SDS/K-DNA precipitation (in situ cleavage complex formation); type: cell-based, Leishmania infantum; settings: 30 min exposure, promastigotes
Method: In order to measure the fragmentation of DNA induced by Top poisons, L. infantum promastigotes, previously labeled with 0.5 mCi/mL [2–^14C] thymidine for 24 h, were exposed to different concentrations of indenoisoquinolines for 30 min, followed by precipitation with SDS/KCl, according to the method described previously ([Balaña-Fouce et al., 2012]). DNA fragmentation was determined as the percentage of total labeled DNA, and was calculated as follows: [(dpm in SDS/KCl drug - dpm in SDS/KCl solvent)/(dpm total incorporation)] x 100. Each experiment was run at least in triplicate.

Compound | γH2A signal (H2A phosphorylation), Western blot [2] | effect on cell cycle of promastigotes [3] | EC50 [4] | CC50 [5] | EC50 [6] | SI (Selectivity Index) [6] | also measured
CC[C@@]1(O)C(=O)OCc2c1cc1n(c2=O)Cc2cc3ccccc3nc2-1 [CPT, camptothecin] | clear increase in the intensity of the 14-kDa band | – | – | – | – | – | EC50 [1]: 30 nM
COc1ccc2c(c1)C(=O)c1c-2n(CCCN)c(=O)c2cc([N+](=O)[O-])ccc12 [Compound 3] | – | arrested the cell cycle of promastigotes in S phase | 0.2 ± 0.01 µM | 0.41 ± 0.19 µM | > 10 µM | – | hTopIB inhibition (human Top IB (hTopIB); Table 1): +++ (inhibition at 1 μM); LTopIB inhibition ([7]; Table 1): ++ (inhibition at 10 μM)
NCCCn1c2c(c3ccc([N+](=O)[O-])cc3c1=O)C(=O)c1cc(F)ccc1-2 [Compound 7] | – | arrested the cell cycle of promastigotes in S phase | 1.28 ± 0.08 µM | 0.3 ± 0.07 µM | 0.04 µM | 8.4 | maximum percentage of SDS/K-DNA precipitable complexes [8]: 33%; hTopIB inhibition (human Top IB (hTopIB); Table 1): +++ (inhibition at 1 μM); LTopIB inhibition ([7]; Table 1): ++ (inhibition at 10 μM)
COc1ccc2c(c1)C(=O)c1c-2n(CCCn2ccnc2)c(=O)c2cc([N+](=O)[O-])ccc12 [Compound 12] | – | arrested the cell cycle of promastigotes in S phase | > 10 µM | 0.33 ± 0.05 µM | 0.01 µM | 33 | hTopIB inhibition (human Top IB (hTopIB); Table 2): +++ (inhibition at 1 μM); LTopIB inhibition ([7]; Table 2): ++ (inhibition at 10 μM)
COc1cnc2c(c1)C(=O)c1c-2n(CCCN2CCOCC2)c(=O)c2ccc(OC)cc12 [Compound 17] | – | arrested the cell cycle of promastigotes in S phase | 2.92 ± 0.44 µM | 7.84 ± 0.77 µM | 0.27 ± 0.08 µM | 29.0 | hTopIB inhibition (human Top IB (hTopIB); Table 3): +++ (inhibition at 1 μM); LTopIB inhibition ([7]; Table 3): +++ (inhibition at 1 μM)
COc1cnc2c(c1)C(=O)c1c-2n(CCCN2CCOCC2)c(=O)c2cc(OC)c(OC)cc12 [Compound 18] | – | arrested the cell cycle of promastigotes in S phase | 0.53 ± 0.07 µM | 3.81 ± 0.51 µM | 0.13 ± 0.01 µM | 29.3 | hTopIB inhibition (human Top IB (hTopIB); Table 3): ++ (inhibition at 10 μM); LTopIB inhibition ([7]; Table 3): ++ (inhibition at 10 μM)
CCc1c2c(nc3ccc(O)cc13)-c1cc3c(c(=O)n1C2)COC(=O)[C@]3(O)CC [SN38] | clear increase in the intensity of the 14-kDa band | – | – | – | – | – | –
CC[C@@]1(O)C(=O)OCc2c1cc1n(c2=O)Cc2cc3c(CN(C)C)c(O)ccc3nc2-1 [TPT, topotecan] | clear increase in the intensity of the 14-kDa band | – | – | – | – | – | –
